In patent publication US12459932B2, “KIF18A inhibitors” (AMGEN INC., priority 2018, dated 2025) one finds IC50 data, which are given here for 30 compounds.

As a reminder, the IC50 is the concentration needed to halve the response being measured.

The target in this test is T1, Recombinant human KIF18A (1-467 His-tagged) (Homo sapiens, UniProt Q8NI77).
T1 construct: Recombinant human KIF18A (1-467 His-tagged) protein; His
T1 sequence (Q8NI77 1-467): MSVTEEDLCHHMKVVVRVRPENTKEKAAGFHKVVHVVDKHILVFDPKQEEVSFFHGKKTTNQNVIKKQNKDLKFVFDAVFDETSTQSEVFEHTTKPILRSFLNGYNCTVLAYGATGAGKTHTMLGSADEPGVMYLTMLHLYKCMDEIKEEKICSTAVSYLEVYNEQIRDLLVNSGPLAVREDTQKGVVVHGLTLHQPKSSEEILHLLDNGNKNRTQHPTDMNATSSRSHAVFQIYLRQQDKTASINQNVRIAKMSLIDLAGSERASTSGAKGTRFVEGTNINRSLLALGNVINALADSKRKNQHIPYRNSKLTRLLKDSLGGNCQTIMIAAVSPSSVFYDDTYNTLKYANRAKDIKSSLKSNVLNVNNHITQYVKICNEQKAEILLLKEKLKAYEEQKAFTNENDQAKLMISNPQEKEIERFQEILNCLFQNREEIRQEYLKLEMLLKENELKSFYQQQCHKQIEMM
T1 sequence (P02550 whole entry partner): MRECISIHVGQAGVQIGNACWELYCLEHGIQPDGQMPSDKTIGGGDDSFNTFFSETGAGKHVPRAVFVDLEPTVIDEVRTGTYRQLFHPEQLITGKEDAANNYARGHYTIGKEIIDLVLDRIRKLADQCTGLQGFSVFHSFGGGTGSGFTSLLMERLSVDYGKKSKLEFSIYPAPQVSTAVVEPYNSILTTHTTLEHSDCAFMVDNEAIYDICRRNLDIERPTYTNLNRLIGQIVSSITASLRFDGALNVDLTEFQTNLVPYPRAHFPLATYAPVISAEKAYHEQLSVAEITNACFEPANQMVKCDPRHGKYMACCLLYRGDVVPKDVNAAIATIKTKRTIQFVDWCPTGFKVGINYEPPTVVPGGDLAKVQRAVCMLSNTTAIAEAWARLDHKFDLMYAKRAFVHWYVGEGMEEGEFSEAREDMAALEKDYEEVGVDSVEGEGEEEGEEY
T1 sequence (P02554 whole entry partner): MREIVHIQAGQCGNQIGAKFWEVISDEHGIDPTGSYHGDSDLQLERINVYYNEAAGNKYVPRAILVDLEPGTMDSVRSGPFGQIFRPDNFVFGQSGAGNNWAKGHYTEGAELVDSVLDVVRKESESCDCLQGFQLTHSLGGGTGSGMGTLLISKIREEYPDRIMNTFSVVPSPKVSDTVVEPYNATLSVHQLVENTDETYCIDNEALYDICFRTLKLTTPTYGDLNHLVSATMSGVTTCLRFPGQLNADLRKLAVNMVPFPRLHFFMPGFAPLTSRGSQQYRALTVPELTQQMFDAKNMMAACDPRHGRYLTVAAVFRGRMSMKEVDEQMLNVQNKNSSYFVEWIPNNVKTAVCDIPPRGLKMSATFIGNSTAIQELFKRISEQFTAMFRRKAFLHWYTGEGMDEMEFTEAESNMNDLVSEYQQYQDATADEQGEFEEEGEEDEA
Kind of test: KIF18A Enzyme Assay: microtubule-stimulated ATPase activity (ADP-Glo). It counts as biochemical. Conditions: 30 nM KIF18A, 30 μg/mL pig microtubules, ATP 75 μM (Km), ADP-Glo luminescence. The essentials:
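Measures microtubule-stimulated ATPase activity as ADP formed, detected by luminescence. Compounds were tested as 2-fold serial dilutions over 22 points. IC50 values came from four-parameter logistic fits.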
In general terms: ADP-Glo turns the ADP formed in a reaction into a luminescent signal.
For the compound `CC1(S(=O)(=O)Nc2ccc(C(=O)Nc3cccc(N4CCCC(C#N)C4)n3)c(N3CCC4(CC3)CC4)c2)CC1` (stereo not drawn) [Example 3-22, N-(6-(3-Cyanopiperidin-1-yl)pyridin-2-yl)-4-((1-methylcyclopropane)-1-sulfonamido)-2-(6-azaspiro[2.5]octan-6-yl)benzamide], the IC50 turned out to be 0.086 µM.
In the case of `CS(=O)(=O)Cc1ccc(C(=O)Nc2cccc(N3CCC[C@@H](O)C3)n2)c(N2CCC3(CC2)CC3)c1` [Example 4, (R)-N-(6-(3-hydroxypiperidin-1-yl)pyridin-2-yl)-4-((methylsulfonyl)methyl)-2-(6-azaspiro[2.5]octan-6-yl)benzamide] it was 0.094 µM; in that of `CC(C)(O)c1cccc(NC(=O)c2ccc(NS(=O)(=O)C3(C)CC3)cc2N2CCC3(CC2)CC3)n1` [Example 4-1, N-(6-(2-Hydroxypropan-2-yl)pyridin-2-yl)-4-((1-methylcyclopropane)-1-sulfonamido)-2-(6-azaspiro[2.5]octan-6-yl)benzamide], 0.128 µM; in that of `CC1(NS(=O)(=O)c2ccc(C(=O)Nc3cccc(C(C)(C)O)n3)c(N3CCC4(CC3)CC4)c2)COC1` [Example 4-2, N-(6-(2-Hydroxypropan-2-yl)pyridin-2-yl)-4-(N-(3-methyloxetan-3-yl)sulfamoyl)-2-(6-azaspiro[2.5]octan-6-yl)benzamide], 0.08 µM.
In the case of `CC(C)(C)NS(=O)(=O)c1ccc(C(=O)Nc2cccc(N3CCO[C@H](CO)C3)n2)c(N2CCC3(CC2)CC3)c1` [Example 4-3, (S)-4-(N-(tert-Butyl)sulfamoyl)-N-(6-(2-(hydroxymethyl)morpholino)pyridin-2-yl)-2-(6-azaspiro[2.5]octan-6-yl)benzamide] it was 0.086 µM; in that of `CS(=O)(=O)c1ccc(C(=O)Nc2cccc(C3CC3)n2)c(N2CCC3(CC2)CC3)c1` [Example 4-4, N-(6-Cyclopropylpyridin-2-yl)-4-(methylsulfonyl)-2-(6-azaspiro[2.5]octan-6-yl)benzamide], 0.18 µM.
The result for `CC(C)c1cccc(NC(=O)c2ccc(S(C)(=O)=O)cc2N2CCC3(CC2)CC3)n1` [Example 4-5, N-(6-Isopropylpyridin-2-yl)-4-(methylsulfonyl)-2-(6-azaspiro[2.5]octan-6-yl)benzamide] reads 0.179 µM; that for `CC(C)(C)c1cccc(NC(=O)c2ccc(S(C)(=O)=O)cc2N2CCC3(CC2)CC3)n1` [Example 4-6, N-(6-(tert-Butyl)pyridin-2-yl)-4-(methylsulfonyl)-2-(6-azaspiro[2.5]octan-6-yl)benzamide], 0.166 µM.
On to `CC(C)(O)c1cccc(NC(=O)c2ccc(S(C)(=O)=O)cc2N2CCC3(CC2)CC3)n1` [Example 4-7, N-(6-(2-Hydroxypropan-2-yl)pyridin-2-yl)-4-(methylsulfonyl)-2-(6-azaspiro[2.5]octan-6-yl)benzamide], for which the IC50 amounted to 0.315 µM.
The result for `CC(C)(C)NS(=O)(=O)c1cccc(NC(=O)c2ccc(S(C)(=O)=O)cc2N2CCC3(CC2)CC3)n1` [Example 4-8, N-(6-(N-(tert-Butyl)sulfamoyl)pyridin-2-yl)-4-(methylsulfonyl)-2-(6-azaspiro[2.5]octan-6-yl)benzamide] reads 0.076 µM.
As to `CC1(S(=O)(=O)Nc2ccc(C(=O)Nc3cccc(N4CCC(F)(F)CC4)n3)c(N3CCC4(CC3)CC4)c2)CC1` [Example 4-9, N-(6-(4,4-Difluoropiperidin-1-yl)pyridin-2-yl)-4-((1-methylcyclopropane)-1-sulfonamido)-2-(6-azaspiro[2.5]octan-6-yl)benzamide], the IC50 came to 0.046 µM.
The result for `Cc1cc(NC(=O)c2ccc(NS(=O)(=O)C3(C)CC3)cc2N2CCC3(CC2)CC3)nc(N2CCC(F)(F)CC2)c1` [Example 4-10, N-(6-(4,4-Difluoropiperidin-1-yl)-4-methylpyridin-2-yl)-4-((1-methylcyclopropane)-1-sulfonamido)-2-(6-azaspiro[2.5]octan-6-yl)benzamide] reads 0.095 µM; that for `C[C@@H]1CN(c2cccc(NC(=O)c3ccc(S(=O)(=O)NC4(C)COC4)cc3N3CCC4(CC3)CC4)n2)CCO1` [Example 4-11, (R)-N-(6-(2-Methylmorpholino)pyridin-2-yl)-4-(N-(3-methyloxetan-3-yl)sulfamoyl)-2-(6-azaspiro[2.5]octan-6-yl)benzamide], 0.043 µM; that for `CS(=O)(=O)c1ccc(C(=O)Nc2cccc(N3CCOCC3)n2)c(N2CCC3(CC2)CC3)c1` [Example 4-12, 4-(Methylsulfonyl)-N-(6-morpholinopyridin-2-yl)-2-(6-azaspiro[2.5]octan-6-yl)benzamide], 0.118 µM.
In the case of `C[C@@H]1CN(c2cccc(NC(=O)c3ccc(S(C)(=O)=O)cc3N3CCC4(CC3)CC4)n2)CCO1` [Example 4-13, (R)-N-(6-(2-Methylmorpholino)pyridin-2-yl)-4-(methylsulfonyl)-2-(6-azaspiro[2.5]octan-6-yl)benzamide] it was 0.069 µM; in that of `C[C@@H]1CN(c2cccc(NC(=O)c3ccc(NS(=O)(=O)C4(C)CC4)cc3N3CCC4(CC3)CC4)n2)CCO1` [Example 4-14, (R)-4-((1-Methylcyclopropane)-1-sulfonamido)-N-(6-(2-methylmorpholino)pyridin-2-yl)-2-(6-azaspiro[2.5]octan-6-yl)benzamide], 0.066 µM.
Turning to `C[C@@H]1CN(c2cccc(NC(=O)c3ccc(CS(C)(=O)=O)cc3N3CCC4(CC3)CC4)n2)CCO1` [Example 4-15, (R)-N-(6-(2-Methylmorpholino)pyridin-2-yl)-4-((methylsulfonyl)methyl)-2-(6-azaspiro[2.5]octan-6-yl)benzamide], the concentration for half-maximal inhibition (IC50) is 0.085 µM.
As for `Cc1cc(NC(=O)c2ccc(CS(C)(=O)=O)cc2N2CCC3(CC2)CC3)nc(N2CCOCC2)c1` [Example 4-16, N-(4-Methyl-6-morpholinopyridin-2-yl)-4-((methylsulfonyl)methyl)-2-(6-azaspiro[2.5]octan-6-yl)benzamide], the IC50 was 0.145 µM.
With `Cc1cc(NC(=O)c2ccc(NS(=O)(=O)C3(C)CC3)cc2N2CCC3(CC2)CC3)nc(C(C)(C)O)c1` [Example 4-17, N-(6-(2-Hydroxypropan-2-yl)-4-methylpyridin-2-yl)-4-((1-methylcyclopropane)-1-sulfonamido)-2-(6-azaspiro[2.5]octan-6-yl)benzamide], the IC50 amounted to 0.163 µM.
In the case of `Cc1cc(NC(=O)c2ccc(S(=O)(=O)NC3(C)COC3)cc2N2CCC3(CC2)CC3)nc(C(C)(C)O)c1` [Example 4-18, N-(6-(2-Hydroxypropan-2-yl)-4-methylpyridin-2-yl)-4-(N-(3-methyloxetan-3-yl)sulfamoyl)-2-(6-azaspiro[2.5]octan-6-yl)benzamide] it was 0.089 µM; in that of `O=C(Nc1cccc(OCCC(F)(F)F)n1)c1ccc(NS(=O)(=O)CCO)cc1N1CCC2(CC1)CC2` [Example 5, 4-((2-Hydroxyethyl)sulfonamido)-2-(6-azaspiro[2.5]octan-6-yl)-N-(6-(3,3,3-trifluoropropoxy)pyridin-2-yl)benzamide], 0.025 µM; in that of `Cc1cc(NC(=O)c2ccc(NS(=O)(=O)CCO)cc2N2CCC3(CC2)CC3)nc(N2CCC(F)(F)CC2)c1` [Example 6, N-(6-(4,4-Difluoropiperidin-1-yl)-4-methylpyridin-2-yl)-4-((2-hydroxyethyl)sulfonamido)-2-(6-azaspiro[2.5]octan-6-yl)benzamide], 0.047 µM.
Regarding `Cc1cc(NC(=O)c2ccc(NS(=O)(=O)CCO)cc2N2CCC3(CC2)CC3)nc(C2CC(F)(F)C2)c1` [Example 7-1, N-(6-(3,3-Difluorocyclobutyl)-4-methylpyridin-2-yl)-4-((2-hydroxyethyl)sulfonamido)-2-(6-azaspiro[2.5]octan-6-yl)benzamide], the IC50 is 0.045 µM.
For `C[C@@H]1CN(c2cccc(NC(=O)c3ccc(NS(C)(=O)=O)cc3N3CCC4(CC3)CC4)n2)CCO1` [Example 7-2, (R)-N-(6-(2-Methylmorpholino)pyridin-2-yl)-4-(methylsulfonamido)-2-(6-azaspiro[2.5]octan-6-yl)benzamide], the IC50 amounted to 0.039 µM.
For `C[C@@H]1CN(c2cccc(NC(=O)c3ccc(N4CCCS4(=O)=O)cc3N3CCC4(CC3)CC4)n2)CCO1` [Example 7-3, (R)-4-(1,1-Dioxidoisothiazolidin-2-yl)-N-(6-(2-methylmorpholino)pyridin-2-yl)-2-(6-azaspiro[2.5]octan-6-yl)benzamide], the IC50 came out at 0.076 µM.
The result for `C[C@@H]1CN(c2cccc(NC(=O)c3ccc(N4CCNS4(=O)=O)cc3N3CCC4(CC3)CC4)n2)CCO1` [Example 7-4, (R)-4-(1,1-Dioxido-1,2,5-thiadiazolidin-2-yl)-N-(6-(2-methylmorpholino)pyridin-2-yl)-2-(6-azaspiro[2.5]octan-6-yl)benzamide] reads 0.287 µM; that for `C[C@@H]1CN(c2cccc(NC(=O)c3ccc(NS(=O)(=O)N(C)C)cc3N3CCC4(CC3)CC4)n2)CCO1` [Example 7-5, (R)-4-((N,N-Dimethylsulfamoyl)amino)-N-(6-(2-methylmorpholino)pyridin-2-yl)-2-(6-azaspiro[2.5]octan-6-yl)benzamide], 0.055 µM.
In the case of `C[C@@H]1CN(c2cccc(NC(=O)c3ccc(N4CCS4(=O)=O)cc3N3CCC4(CC3)CC4)n2)CCO1` [Example 7-6, (R)-4-(1,1-Dioxido-1,2-thiazetidin-2-yl)-N-(6-(2-methylmorpholino)pyridin-2-yl)-2-(6-azaspiro[2.5]octan-6-yl)benzamide] it was 0.098 µM.
The result for `C[C@@H]1CN(c2cccc(NC(=O)c3ccc(NS(=O)(=O)C(F)F)cc3N3CCC4(CC3)CC4)n2)CCO1` [Example 7-7, (R)-4-((Difluoromethyl)sulfonamido)-N-(6-(2-methylmorpholino)pyridin-2-yl)-2-(6-azaspiro[2.5]octan-6-yl)benzamide] reads 0.049 µM; that for `CCS(=O)(=O)Nc1ccc(C(=O)Nc2cc(C)cc(N3CCO[C@H](C)C3)n2)c(N2CCC3(CC2)CC3)c1` [Example 7-8, (R)-4-(Ethylsulfonamido)-N-(4-methyl-6-(2-methylmorpholino)pyridin-2-yl)-2-(6-azaspiro[2.5]octan-6-yl)benzamide], 0.072 µM.
